Test results taken from patent US10913727B2, “Modulators of the integrated stress pathway” (Calico Life Sciences LLC, priority 2016, dated 2021).

Each compound was assayed on HEK293T cells carrying the ATF4 luciferase reporter (assay: ATF4-Luc assay, in vitro model of Vanishing Cell White Matter Disease (VWMD)). Conditions: Homo sapiens, HEK-293T, 1 μg/mL tunicamycin, 7 hours, One Glo luminescence.
Format: cell-based
Procedure, shortened: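 Compound at 200 nM and tunicamycin at 1 μg/mL were given together for 7 h to HEK293T cells stably transduced with an ATF4 5′-UTR-driven firefly luciferase reporter. Read-out by luminescence, reported as EC50.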
Compound Cn1nccc1C(=O)NC12CCC(NC(=O)COc3ccc(Cl)c(F)c3)(CC1)C(O)C2 (stereo not shown) [Compound 602, N-{4-[2-(4-chloro-3-fluorophenoxy)acetamido]-3-hydroxybicyclo[2.2.2]octan-1-yl}-1-methyl-1H-pyrazole-5-carboxamide] has an EC50 of 250 to 1000 nM.
Work on O=C(COc1ccc(Cl)c(F)c1)NC12CC(NC(=O)c3cc4ccccn4c3)(C1)C2 [Compound 689, N-{3-[2-(4-chloro-3-fluorophenoxy)acetamido]bicyclo[1.1.1]pentan-1-yl}indolizine-2-carboxamide] yielded an EC50 of 50 to 250 nM.
For Cc1ccc(C(=O)NC23CCC(NC(=O)COc4ccc(Cl)c(F)c4)(CC2)C[C@@H]3O)nc1 [Compound 589, N-{(2S)-4-[2-(4-chloro-3-fluorophenoxy)acetamido]-2-hydroxybicyclo[2.2.2]octan-1-yl}-5-methylpyridine-2-carboxamide], the EC50 was 50 to 250 nM.
CCn1cncc1C(=O)NC12CC(NC(=O)COc3ccc(Cl)c(F)c3)(C1)C2 [Compound 775, N-{3-[2-(4-chloro-3-fluorophenoxy)acetamido]bicyclo[1.1.1]pentan-1-yl}-1-ethyl-1H-imidazole-5-carboxamide] gave an EC50 of over 2000 nM.
Work on CCCc1cnc(C(=O)NC23CC(NC(=O)COc4ccc(Cl)c(F)c4)(C2)C3)cn1 [Compound 334, N-{3-[2-(4-chloro-3-fluorophenoxy)acetamido]bicyclo[1.1.1]pentan-1-yl}-5-propylpyrazine-2-carboxamide] yielded an EC50 of under 50 nM.
For Cc1cc(C(=O)NC23CC(NC(=O)COc4ccc(Cl)c(F)c4)(C2)C3)on1 [Compound 295, N-{3-[2-(4-chloro-3-fluorophenoxy)acetamido]bicyclo[1.1.1]pentan-1-yl}-3-methyl-1,2-oxazole-5-carboxamide], the EC50 was 250 to 1000 nM.
CC(=O)N1CCC(c2ncc(C(=O)NC34CC(NC(=O)COc5ccc(Cl)c(Cl)c5)(C3)C4)o2)CC1 [Compound 149, 2-(1-acetylpiperidin-4-yl)-N-{3-[2-(3,4-dichlorophenoxy)acetamido]bicyclo[1.1.1]pentan-1-yl}-1,3-oxazole-5-carboxamide] showed an EC50 of 1000 to 2000 nM.
O=C(COc1ccc(Cl)c(F)c1)NC12CC(NC(=O)c3ccccc3F)(C1)C2 [Compound 507, N-{3-[2-(4-chloro-3-fluorophenoxy)acetamido]bicyclo[1.1.1]pentan-1-yl}-2-fluorobenzamide] showed an EC50 of 250 to 1000 nM.
O=C(COc1ccc(Cl)c(Cl)c1)NC12CC(NC(=O)c3ccccn3)(C1)C2 [Compound 156, N-{3-[2-(3,4-dichlorophenoxy)acetamido]bicyclo[1.1.1]pentan-1-yl}pyridine-2-carboxamide] gave an EC50 of 50 to 250 nM.
With O=C(COc1ccc(Cl)c(F)c1)NC12CC(Nc3ccnc4cc(Cl)ccc34)(C1)C2 [Compound 384, 2-(4-chloro-3-fluorophenoxy)-N-{3-[(7-chloroquinolin-4-yl)amino]bicyclo[1.1.1]pentan-1-yl}acetamide] the EC50 was under 50 nM.
Compound O=C(COc1ccc(Cl)c(F)c1)NC12CCC(NC(=O)c3cnc(C(F)F)cn3)(CC1)[C@H](O)C2 (single isomer, unassigned) [Compound 235] has an EC50 of 50 to 250 nM.
Compound Cc1nc(C(F)(F)F)c(C(=O)NC23CCC(NC(=O)COc4ccc(Cl)c(F)c4)(CC2)C(O)C3)s1 (stereo not shown) [Compound 504, N-{4-[2-(4-chloro-3-fluorophenoxy)acetamido]-3-hydroxybicyclo[2.2.2]octan-1-yl}-2-methyl-4-(trifluoromethyl)-1,3-thiazole-5-carboxamide] has an EC50 of 50 to 250 nM.
O=C(COc1ccc(Cl)c(F)c1)NC12CC(NC(=O)c3ccc(OC(F)(F)F)cc3)(C1)C2 [Compound 321, N-{3-[2-(4-chloro-3-fluorophenoxy)acetamido]bicyclo[1.1.1]pentan-1-yl}-4-(trifluoromethoxy)benzamide] was tested, and the EC50 was 50 to 250 nM.
O=C(COc1ccc(Cl)c(Cl)c1)NC12CC(Nc3cnc(C(F)(F)F)cn3)(C1)C2 [Compound 101, 2-(3,4-dichlorophenoxy)-N-(3-{[5-(trifluoromethyl)pyrazin-2-yl]amino}bicyclo-[1.1.1]pentan-1-yl)acetamide] was tested, and the EC50 was over 2000 nM.
Compound O=C(COc1ccc(Cl)c(F)c1)NC12CC(NC(=O)c3ccc4oc(=O)ccc4c3)(C1)C2 [Compound 396, N-{3-[2-(4-chloro-3-fluorophenoxy)acetamido]bicyclo[1.1.1]pentan-1-yl}-2-oxo-2H-1-benzopyran-6-carboxamide] has an EC50 of 250 to 1000 nM.
Compound COc1ccc(C(=O)NC23CC(NC(=O)COc4ccc(Cl)c(F)c4)(C2)C3)cn1 [Compound 154, N-{3-[2-(4-chloro-3-fluorophenoxy)acetamido]bicyclo[1.1.1]pentan-1-yl}-6-methoxypyridine-3-carboxamide] has an EC50 of 250 to 1000 nM.
In the case of N#Cc1ccnc(C(=O)NC23CCC(NC(=O)COc4ccc(Cl)c(F)c4)(CC2)C(O)C3)c1 (stereo not shown) [Compound 932, N-{4-[2-(4-chloro-3-fluorophenoxy)acetamido]-3-hydroxybicyclo[2.2.2]octan-1-yl}-4-cyanopyridine-2-carboxamide], the EC50 is reported as 50 to 250 nM.
For O=C(COc1ccc(Cl)c(F)c1)NC12CC(NC(=O)c3cccc(CO)c3)(C1)C2 [Compound 419, N-{3-[2-(4-chloro-3-fluorophenoxy)acetamido]bicyclo[1.1.1]pentan-1-yl}-3-(hydroxymethyl)benzamide], the EC50 was 250 to 1000 nM.
In the case of O=C(COc1ccc2c(c1)OC(F)(F)O2)NC12CC(NC(=O)c3cccnc3)(C1)C2 [Compound 457, N-(3-{2-[(2,2-difluoro-2H-1,3-benzodioxol-5-yl)oxy]acetamido}bicyclo[1.1.1]pentan-1-yl)pyridine-3-carboxamide], the EC50 is reported as 250 to 1000 nM.
With Cc1cnc(C(=O)NC23CC(NC(=O)COc4ccc(Cl)c(F)c4)(C2)C3)s1 [Compound 469, N-{3-[2-(4-chloro-3-fluorophenoxy)acetamido]bicyclo[1.1.1]pentan-1-yl}-5-methyl-1,3-thiazole-2-carboxamide] the EC50 was 250 to 1000 nM.
O=C(COc1ccc(Cl)c(F)c1)NC12CC(NC(=O)c3cnc4ccccn34)(C1)C2 [Compound 258, N-{3-[2-(4-chloro-3-fluorophenoxy)acetamido]bicyclo[1.1.1]pentan-1-yl}imidazo[1,2-a]pyridine-3-carboxamide] gave an EC50 of 250 to 1000 nM.
O=C(COc1ccc(Cl)c(F)c1)NC12CC(Nc3cccc4cnccc34)(C1)C2 [Compound 490, 2-(4-chloro-3-fluorophenoxy)-N-{3-[(isoquinolin-5-yl)amino]bicyclo[1.1.1]pentan-1-yl}acetamide] showed an EC50 of 50 to 250 nM.
In the case of O=C(COc1ccc(Cl)c(F)c1)NC12CC(NC(=O)c3ccc(C(F)F)cn3)(C1)C2 [Compound 233, N-{3-[2-(4-chloro-3-fluorophenoxy)acetamido]bicyclo[1.1.1]pentan-1-yl}-5-(difluoromethyl)pyridine-2-carboxamide], the EC50 is reported as under 50 nM.
COc1cc(C(=O)NC23CC(NC(=O)COc4ccc(Cl)c(F)c4)(C2)C3)n(C)n1 [Compound 651, N-{3-[2-(4-chloro-3-fluorophenoxy)acetamido]bicyclo[1.1.1]pentan-1-yl}-3-methoxy-1-methyl-1H-pyrazole-5-carboxamide] gave an EC50 of 50 to 250 nM.
With CN(C)Cc1cccc(C(=O)NC23CC(NC(=O)COc4ccc(Cl)c(F)c4)(C2)C3)c1 [Compound 553, N-{3-[2-(4-chloro-3-fluorophenoxy)acetamido]bicyclo[1.1.1]pentan-1-yl}-3-[(dimethylamino)methyl]benzamide] the EC50 was over 2000 nM.
For Cc1cn2ccnc(NC34CC(NC(=O)COc5ccc(Cl)c(F)c5)(C3)C4)c2n1 [Compound 463, 2-(4-chloro-3-fluorophenoxy)-N-{3-[(2-methylimidazo[1,2-a]pyrazin-8-yl)amino]bicyclo[1.1.1]pentan-1-yl}acetamide], the EC50 was 50 to 250 nM.
Work on O=C(COc1ccc(Cl)c(F)c1)NC12CC(NC(=O)c3ccc(OC(F)F)nc3)(C1)C2 [Compound 440, N-{3-[2-(4-chloro-3-fluorophenoxy)acetamido]bicyclo[1.1.1]pentan-1-yl}-6-(difluoromethoxy)pyridine-3-carboxamide] yielded an EC50 of 50 to 250 nM.
In the case of CCOc1cc(C)nc(NC23CC(NC(=O)COc4ccc(Cl)c(F)c4)(C2)C3)n1 [Compound 383, 2-(4-chloro-3-fluorophenoxy)-N-{3-[(4-ethoxy-6-methylpyrimidin-2-yl)amino]bicyclo[1.1.1]pentan-1-yl}acetamide], the EC50 is reported as over 2000 nM.
CC(C)Oc1ccc(C(=O)NC23CCC(NC(=O)COc4ccc(Cl)c(F)c4)(CC2)C(O)C3)nc1 (stereo not shown) [Compound 912, N-{4-[2-(4-chloro-3-fluorophenoxy)acetamido]-3-hydroxybicyclo[2.2.2]octan-1-yl}-5-[(propan-2-yl)oxy]pyridine-2-carboxamide] was tested, and the EC50 was under 50 nM.
Work on COCCOc1ccc(C(=O)NC23CC(NC(=O)COc4ccc(Cl)c(F)c4)(C2)C3)nc1 [Compound 299, N-{3-[2-(4-chloro-3-fluorophenoxy)acetamido]bicyclo[1.1.1]pentan-1-yl}-5-(2-methoxyethoxy)pyridine-2-carboxamide] yielded an EC50 of 250 to 1000 nM.
With COCc1nc(C(=O)NC23CCC(NC(=O)COc4ccc(Cl)c(F)c4)(CC2)[C@@H](O)C3)cs1 [Compound 619, N-{(3S)-4-[2-(4-chloro-3-fluorophenoxy)acetamido]-3-hydroxybicyclo[2.2.2]octan-1-yl}-2-(methoxymethyl)-1,3-thiazole-4-carboxamide] the EC50 was under 50 nM.
With O=C(COc1ccc(Cl)c(Cl)c1)NC12CC(NC(=O)c3cnc4ccccc4n3)(C1)C2 [Compound 920, N-{3-[2-(3,4-dichlorophenoxy)acetamido]bicyclo[1.1.1]pentan-1-yl}quinoxaline-2-carboxamide] the EC50 was under 50 nM.
CN(C)c1ccc(C(=O)NC23CC(NC(=O)COc4ccc(Cl)c(F)c4)(C2)C3)cc1 [Compound 536, N-{3-[2-(4-chloro-3-fluorophenoxy)acetamido]bicyclo[1.1.1]pentan-1-yl}-4-(dimethylamino)benzamide] showed an EC50 of 250 to 1000 nM.
Work on O=C(COc1ccc(Cl)c(F)c1)NC12CCC(NC(=O)c3cccc(N4CCOCC4)n3)(CC1)CC2O (stereo not shown) [Compound 942, N-{4-[2-(4-chloro-3-fluorophenoxy)acetamido]-3-hydroxybicyclo[2.2.2]octan-1-yl}-6-(morpholin-4-yl)pyridine-2-carboxamide] yielded an EC50 of 1000 to 2000 nM.
